Results taken from ChEMBL document CHEMBL5126506, “Coumarin-benzimidazole hybrids: A review of developments in medicinal chemistry” (Eur J Med Chem, 2022).

Columns and labels:
[1] = Cytotoxicity against human WI-38 cells assessed as cell growth inhibition measured after 48 hrs by sulforhodamine B staining based analysis; format: toxicity
[2] = system: NCI-H460; assay: Anticancer activity against human NCI-H460 cells assessed as cell growth inhibition measured after 48 hrs by sulforhodamine B staining based analysis; format: functional
[3] = system: SF-268; assay: Anticancer activity against human SF-268 cells assessed as cell growth inhibition measured after 48 hrs by sulforhodamine B staining based analysis; format: functional
[4] = system: MCF7; assay: Anticancer activity against human MCF7 cells assessed as cell growth inhibition measured after 48 hrs by sulforhodamine B staining based analysis; format: functional
[5] = system: Shigella dysenteriae; assay: Antibacterial activity against Shigella dysenteriae ATCC 49345 assessed as bacterial growth inhibition at 50 ug/ml incubated for 24 hrs relative to control; format: functional; design: scale not given: the % may be the effect or the level left; settings: dose 50 µg/ml
[6] = system: Salmonella typhi; assay: Antibacterial activity against Salmonella typhi ATCC 11778 assessed as bacterial growth inhibition at 50 ug/ml incubated for 24 hrs relative to control; format: functional, Salmonella enterica subsp. enterica serovar Typhi; design: scale not given: the % may be the effect or the level left; settings: dose 50 µg/ml
[7] = system: Aspergillus niger; assay: Antifungal activity against Aspergillus niger assessed as zone of inhibition at 1000 ug/ml measured after 24 hrs by cup plate method; format: functional; settings: read-out: DIZ
[8] = system: Aspergillus terreus; assay: Antifungal activity against Aspergillus terreus assessed as zone of inhibition at 1000 ug/ml measured after 24 hrs by cup plate method; format: functional; settings: read-out: DIZ
[9] = system: Rattus norvegicus; assay: Antiinflammatory activity in formalin induced fasted albino rat paw oedema model assessed as inhibition of paw oedema at 100 mg/kg, po measured after 4 hrs by plethysmograph analysis relative to control; format: functional; design: scale not given: the % may be the effect or the level left
[10] = system: Pseudomonas aeruginosa; assay: Antibacterial activity against Pseudomonas aeruginosa assessed as zone of inhibition at 1000 ug/ml measured after 24 hrs by cup plate method; format: functional; settings: read-out: DIZ
[11] = system: Bacillus subtilis; assay: Antibacterial activity against Bacillus subtilis assessed as zone of inhibition at 1000 ug/ml measured after 24 hrs by cup plate method; format: functional; settings: read-out: DIZ
[12] = system: Escherichia coli; assay: Antibacterial activity against Escherichia coli assessed as zone of inhibition at 1000 ug/ml measured after 24 hrs by cup plate method; format: functional; settings: read-out: DIZ
[13] = system: Staphylococcus aureus; assay: Antibacterial activity against Staphylococcus aureus assessed as zone of inhibition at 1000 ug/ml measured after 24 hrs by cup plate method; format: functional; settings: read-out: DIZ
[14] = system: Aspergillus flavus; assay: Antifungal activity against Aspergillus flavus assessed as zone of inhibition at 1000 ug/ml measured after 24 hrs by cup plate method; format: functional; settings: read-out: DIZ
[15] = system: Hepatitis C virus; assay: Antiviral activity against HCV GT-1b infected in human Huh-5-2 cells carrying HCV subgenomic replicons assessed as inhibition of viral replication by quantitative RT-PCR assay; format: functional, organism-based, Hepacivirus hominis; settings: subtype 1b
[16] = target: Carbonic anhydrase 1 (Homo sapiens, UniProt P00915); assay: Inhibition of human carbonic anhydrase-1 by stopped flow CO2 hydrase assay
Sequence of Carbonic anhydrase 1 (P00915 whole entry): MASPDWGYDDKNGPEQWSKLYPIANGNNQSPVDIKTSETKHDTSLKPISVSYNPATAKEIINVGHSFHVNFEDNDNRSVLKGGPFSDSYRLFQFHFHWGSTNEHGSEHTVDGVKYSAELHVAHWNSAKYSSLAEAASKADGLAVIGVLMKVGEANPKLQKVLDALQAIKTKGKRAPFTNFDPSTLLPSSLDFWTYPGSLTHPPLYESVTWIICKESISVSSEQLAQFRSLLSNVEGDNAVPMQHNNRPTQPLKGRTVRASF

[17] = target: Carbonic anhydrase 2 (Homo sapiens, UniProt P00918); assay: Inhibition of human carbonic anhydrase-2 by stopped flow CO2 hydrase assay
[18] = Antioxidant activity assessed as DPPH radical scavenging activity incubated for 30 mins in dark condition by spectrophotometrical analysis; format: functional

## O=c1oc2ccccc2cc1-c1nc2ccccc2n1C(=S)Nc1ccccc1
[1]
  GI50 at 48 h: 28 µM
[2]
  GI50: 0.05 µM
[3]
  GI50: 0.06 µM
[4]
  GI50: 0.08 µM

## O=c1oc2ccccc2cc1CSc1nc2ccccc2[nH]1
[5]
  Activity: 100%
[6]
  Activity: 100%

## Cc1c(/C=N/Nc2nc3ccccc3[nH]2)c(=O)oc2cc(O)ccc12
[7]
  zone of inhibition at 1000 µg/mL: 13 mm
[8]
  zone of inhibition at 1000 µg/mL: 13 mm
[9]
  Activity: 37%
[10]
  zone of inhibition at 1000 µg/mL: 13 mm
[11]
  zone of inhibition at 1000 µg/mL: 13 mm
[12]
  zone of inhibition at 1000 µg/mL: 13 mm
[13]
  zone of inhibition at 1000 µg/mL: 13 mm
[14]
  zone of inhibition at 1000 µg/mL: 13 mm

## Cc1ccc2nc(SCc3cc4ccccc4oc3=O)[nH]c2c1
[5]
  Activity: 100%
[6]
  Activity: 100%

## CC(=O)OC[C@H]1O[C@@H](n2c(SCc3cc4cc(Br)ccc4oc3=O)nc3ccccc32)[C@H](OC(C)=O)[C@@H](OC(C)=O)[C@@H]1OC(C)=O
[15]
  EC50: 4.1 µM

## O=c1cc(Cn2c[n+](CCCCn3c[n+](Cc4cc(=O)oc5cc(O)ccc45)c4ccccc43)c3ccccc32)c2ccc(O)cc2o1
[16]
  IC50: 81 µM
[17]
  IC50: 94 µM

## O=c1cc(Cn2c[n+](CCCCCn3c[n+](Cc4cc(=O)oc5cc(O)ccc45)c4ccccc43)c3ccccc32)c2ccc(O)cc2o1
[16]
  IC50: 99 µM
[17]
  IC50: 89 µM

## O=c1oc2ccccc2c2c(O)cn3c4ccccc4nc3c12
[1]
  GI50 at 48 h: 25.2 µM
[2]
  GI50: 30.8 µM
[3]
  GI50: 26.1 µM
[4]
  GI50: 24.1 µM

## Cc1cn2c3ccccc3nc2c2c(=O)oc3ccccc3c12
[1]
  GI50 at 48 h: 68.2 µM
[2]
  GI50: 29.3 µM
[3]
  GI50: 18.4 µM
[4]
  GI50: 26.6 µM

## O=C(Cc1cc(=O)oc2c([N+](=O)[O-])cccc12)Nc1nc2ccccc2[nH]1
[18]
  EC50: 0.08 µM

## O=c1oc2ccccc2c2cc(O)n3c4ccccc4nc3c12
[1]
  GI50 at 48 h: 28.2 µM
[2]
  GI50: 29 µM
[3]
  GI50: 20.6 µM
[4]
  GI50: 44 µM

## CC(=O)OC[C@H]1O[C@@H](n2c(SCc3cc4ccccc4oc3=O)nc3cc(Cl)c(Cl)cc32)[C@H](OC(C)=O)[C@@H](OC(C)=O)[C@@H]1OC(C)=O
[15]
  EC50: 3.1 µM

## O=c1oc2ccc(Cl)cc2cc1CSc1nc2ccc([N+](=O)[O-])cc2[nH]1
[5]
  Activity: 100%
[6]
  Activity: 100%

## O=c1oc2ccc(Br)cc2cc1CSc1nc2ccccc2[nH]1
[5]
  Activity: 100%
[6]
  Activity: 100%
[15]
  EC50: 4 µM

## O=C1CSC(c2cc3ccc(O)cc3oc2=O)N1Nc1nc2ccccc2[nH]1 (stereo not drawn)
[7]
  zone of inhibition at 1000 µg/mL: 13 mm
[8]
  zone of inhibition at 1000 µg/mL: 13 mm
[9]
  Activity: 48%
[10]
  zone of inhibition at 1000 µg/mL: 13 mm
[11]
  zone of inhibition at 1000 µg/mL: 13 mm
[12]
  zone of inhibition at 1000 µg/mL: 13 mm
[13]
  zone of inhibition at 1000 µg/mL: 13 mm
[14]
  zone of inhibition at 1000 µg/mL: 13 mm

## O=c1oc2cc(O)ccc2cc1/C=N/Nc1nc2ccccc2[nH]1
[7]
  zone of inhibition at 1000 µg/mL: 13 mm
[8]
  zone of inhibition at 1000 µg/mL: 13 mm
[9]
  Activity: 39%
[10]
  zone of inhibition at 1000 µg/mL: 13 mm
[11]
  zone of inhibition at 1000 µg/mL: 13 mm
[12]
  zone of inhibition at 1000 µg/mL: 13 mm
[13]
  zone of inhibition at 1000 µg/mL: 13 mm
[14]
  zone of inhibition at 1000 µg/mL: 13 mm

## O=c1oc2ccc(Br)cc2cc1CSc1nc2cc(F)ccc2[nH]1
[15]
  EC50: 3.4 µM

## COc1cccc2cc(CSc3nc4cc(Cl)c(Cl)cc4[nH]3)c(=O)oc12
[15]
  EC50: 3.6 µM

## Cc1c(C2SCC(=O)N2Nc2nc3ccccc3[nH]2)c(=O)oc2cc(O)ccc12 (stereo not drawn)
[7]
  zone of inhibition at 1000 µg/mL: 13 mm
[8]
  zone of inhibition at 1000 µg/mL: 13 mm
[9]
  Activity: 20%
[10]
  zone of inhibition at 1000 µg/mL: 13 mm
[11]
  zone of inhibition at 1000 µg/mL: 13 mm
[12]
  zone of inhibition at 1000 µg/mL: 13 mm
[13]
  zone of inhibition at 1000 µg/mL: 13 mm
[14]
  zone of inhibition at 1000 µg/mL: 13 mm

## O=c1cc(Cc2nc3ccccc3[nH]2)c2cccc([N+](=O)[O-])c2o1
[18]
  EC50: 0.17 µM

## CC(=O)n1c(-c2cc3ccccc3oc2=O)nc2ccccc21
[1]
  GI50 at 48 h: > 100 µM
[2]
  GI50: 36.5 µM
[3]
  GI50: 31.5 µM
[4]
  GI50: 22.7 µM

## O=C1O[C@H]([C@@H](O)CO)C(O)=C1O [ASCORBIC ACID]
[18]
  EC50: 0.03 µM

## Cc1cc(C(C)(C)C)c(O)c(C(C)(C)C)c1 [BUTYLATED HYDROXYTOLUENE]
[18]
  EC50: 23.4 µM
